The values that follow come from patent US20110262508A1, “ANTIMICROBIAL COMPOSITIONS, FORMULATIONS AND USES THEREOF” (priority 2007, published 2011).

In data set [1] the test system is A. baumannii ATCC 19606, Acinetobacter spp. ATCC 17903, Acinetobacter spp. ATCC 19004, E. coli BL21, S. aureus, S. typhimurium AroA, P. aeruginosa, P. …. Kind of data set: Antibacterial spectrum over the serial dilution panel (Table 6). It counts as cell-based. The following applies: summary of Table 6. The method, boiled down: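 Growth inhibition in liquid culture: freshly inoculated strains exposed to roughly 5–10 μM peptide, 5-6 h shaking at 37° C. Absorbance at 595 nm measured growth, with 0.1% acetonitrile vehicle as control.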

Another data set has as its system A. baumannii. Format: cell-based. An outline of the steps:
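Laboratory strains and 50 clinical isolates of A. baumannii were tested by CLSI broth microdilution, with serially diluted peptide (0.1-64 μg) and about 1×10^5 C.F.U. per well, incubated aerobically overnight at 35±2° C. MIC was read visually. MBC came from subculturing clear wells, as ≥99.9% inoculum reduction.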

Another data set has as its system A. baumannii cultures. Nature of the data set: Time taken to exert cytotoxic effect (killing time). It counts as cell-based. The protocol:
To determine the time killing times for bactericidal peptides, A. baumannii cultures were exposed to different concentrations of peptides for predetermined time periods, and the numbers of bacteria surviving at the end of each time period were determined. Peptides were classified as “Fast”, “Intermediate” or “Slow” according to whether they exerted their cytotoxic effect in less than 30 mins, or between 30-60 mins, or between […] and 240 mins.

Another data set has as its system human RBC. Nature of the data set: Hemolysis of RBC. Format: cell-based. The method, boiled down: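 Washed human erythrocytes were exposed to varying peptide concentrations for 1 h at room temperature. After pelleting intact cells, lysis was read by absorbance at 450 nm and expressed relative to 0.1% Triton-lysed cells. MHC10 is the minimum peptide concentration causing 10% lysis.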

The nature of data set [2]: Cytotoxicity against Jurkat cells (CellTiter Blue). Format: cell-based, human. The following applies: human.
Data set [3] concerns A. baumannii ATCC Accession No. 19606. It counts as cell-based. The following applies: A. baumannii ATCC 19606.
The subject of data set [4] is Acinetobacter spp. ATCC 17903. It counts as cell-based.
Data set [5] deals with Acinetobacter spp. ATCC 19004. Format: cell-based.
In data set [6] the test system is Escherichia coli strain BL21. It counts as cell-based. The following applies: E. coli BL21.
The subject of a further data set is P. aeruginosa. It counts as cell-based.
The next data set deals with S. aureus. Format: cell-based.
Data set [7] deals with S. typhimurium strain AroA. It counts as cell-based.

Read-outs that look alike come from different tables or passages of the source. Peptide text beside a SMILES is read from it. * marks the point of attachment. Biotin = O=C1N[C@H]2[C@H](CS[C@H]2CCCCC(=O)*)N1 Some results are limits rather than exact numbers.

In the case of `CC[C@H](C)[C@H](NC(=O)[C@H](Cc1c[nH]c2ccccc12)NC(=O)[C@H](CC(=O)O)NC(=O)[C@H](CO)NC(=O)[C@H](CS)NC(=O)[C@H](CC(C)C)NC(=O)[C@H](CC(C)C)NC(=O)[C@H](C)NC(=O)[C@H](CS)NC(=O)[C@H](CCCNC(=N)N)NC(=O)[C@H](CC(C)C)NC(=O)[C@H](CCCNC(=N)N)NC(=O)[C@H](C)NC(=O)CNC(=O)[C@H](CCCNC(=N)N)NC(=O)[C@@H](NC(=O)CCCC[C@@H]1SC[C@@H]2NC(=O)N[C@@H]21)C(C)C)C(=O)N[C@H](C(=O)N[C@@H](CO)C(=O)N[C@@H](CS)C(=O)N[C@@H](CCCNC(=N)N)C(=O)N[C@@H](CC(C)C)C(=O)N[C@@H](CC(C)C)C(=O)NCC(=O)O)C(C)C` [Ac38] (Biotin-VRGARLRCALLCSDWIVSCRLLG-OH; N-terminus and C-terminus assumed), the “selectively inhibited growth of A. baumannii ATCC Accession No. 19606, Acinetobacter spp. ATCC 17903, Acinetobacter spp. ATCC 19004, and S. aureus” value in data set [1] is reported as “selectively inhibited growth”. In the data set on A. baumannii, the “MIC (μM) for amidated peptide” value was in the range of 15 to 20 µM, the “MIC (μM) for non-amidated Peptide” value amounted to 40 µM and the “bactericidal or bacteriostatic against A. baumannii” value is “bactericidal”. In the data set with A. baumannii cultures, the killing time classification result is “RAPID”. Further, in the data set with human RBC, the MHC10 was more than 100 µM. Also, in the data set on human RBC (red cells of human, 5), the “Percent hemolysis at 5 μM peptide” value worked out at 0.8%. Moreover, the “Percent hemolysis at 10 μM peptide” value in the data set on human RBC (red cells of human, 10) was found to be 3.8%. Besides, the “Percent hemolysis at 20 μM peptide” value in the data set on human RBC (red cells of human, 20) came to 4.8%. The “Percent hemolysis at 40 μM peptide” value in the data set on human RBC (red cells of human, 40) was 11.9%. Also, the “Percent hemolysis at 60 μM peptide” value in the data set on human RBC (red cells of human, 60) was 19.5%. The “Percent hemolysis at 80 μM peptide” value in the data set with human RBC (red cells of human, 80) came out at 26.9%. Besides, in the data set on human RBC (red cells of human, 1 h, 100), the “Percent hemolysis at 100 μM peptide” value was found to be 27.9%. For the same compound, in data set [2], the cytotoxicity at 12.5 μM amounted to 0%, the cytotoxicity at 25 μM stood at 0% and the cytotoxicity at 50 μM turned out to be 0%.

Regarding `CC(C)C[C@H](NC(=O)CNC(=O)[C@@H]1CCCN1C(=O)[C@H](Cc1c[nH]c2ccccc12)NC(=O)[C@H](CCCCN)NC(=O)[C@H](CCCCN)NC(=O)[C@H](CCCNC(=N)N)NC(=O)[C@H](C)NC(=O)[C@H](CCC(N)=O)NC(=O)[C@@H]1CCCN1C(=O)[C@H](CO)NC(=O)[C@@H](NC(=O)[C@H](CCCCN)NC(=O)[C@H](CC(C)C)NC(=O)[C@H](CCCCN)NC(=O)[C@@H](NC(=O)[C@H](CC(C)C)NC(=O)[C@H](Cc1c[nH]cn1)NC(=O)[C@H](CC(=O)O)NC(=O)CN)C(C)C)[C@@H](C)O)C(=O)NCC(=O)N[C@@H](CC(N)=O)C(=O)N[C@@H](CCC(=O)O)C(=O)O` [Ac99] (H-GDHLVKLKTSPQARKKWPGLGNE-OH; N-terminus and C-terminus assumed), the “% inhibition of bacterial growth by peptide” value (“% inhibition” for short) is recorded as 9% in data set [3] (12.5 μM peptide); 20% in data set [3] (15 μM peptide); 14% in [3] (17.5 μM peptide); 27% in [3] (20 μM peptide); 0% in [4] (12.5 μM peptide); 1% in data set [4] (15 μM peptide). The “% inhibition” value came out at 1% in data set [4] (17.5 μM peptide); 32% in data set [4] (20 μM peptide); 0% in data set [5] (12.5 μM peptide); 1% in [5] (15 μM peptide); 7% in data set [5] (17.5 μM peptide); 92% in data set [5] (20 μM peptide). The “% inhibition” value worked out at 16% in [6] (12.5 μM peptide); 23% in [6] (15 μM peptide); 17% in data set [6] (17.5 μM peptide); 27% in data set [6] (20 μM peptide); 8% in the data set on P. aeruginosa (12.5 μM peptide); 21% with P. aeruginosa (15 μM peptide). For the same compound, the “% inhibition” value with P. aeruginosa (17.5 μM peptide) is 0%; in the data set with P. aeruginosa (20 μM peptide), 0%; in the data set with S. aureus (12.5 μM peptide), 60%; in the data set with S. aureus (15 μM peptide), 80%; in the data set on S. aureus (17.5 μM peptide), 99%; in the data set with S. aureus (20 μM peptide), 100%. Moreover, the “% inhibition” value in data set [7] (12.5 μM peptide) is listed as 0%; in [7] (15 μM peptide), 5%; in data set [7] (17.5 μM peptide) it was 0%; in [7] (20 μM peptide) it was 4%. For the same compound, the “selectively inhibited growth of Acinetobacter spp. ATCC 19004, and S. aureus” value in data set [1] was “selectively inhibited growth”.
